Measurements: patent US20240092779A1, “USP1 INHIBITORS AND USES THEREOF” (Zentaur Therapeutics USA Inc., priority 2022, published 2024)
Values after ≈ are worked out from the molar mass of the structure shown.

Experiments:
[1] = biological target: T1, recombinant USP1/UAF1 enzyme complex (Homo sapiens, UniProt O94782); experiment: Enzyme assay: deubiquitinase fluorometric assay with ubiquitin-Rhodamine substrate; assay type: biochemical; conditions: USP1/UAF1, Ub-Rho110 substrate, 2 hours preincubation, 1 hour reaction
T1 construct: purchased Biortus
Method: Enzymatic inhibitory potency of the compounds was assessed in a deubiquitinase fluorometric assay using ubiquitin-Rhodamine (Ub-Rho110, R&D Systems) as substrate and the recombinant USP1/UAF1 enzyme complex (Biortus). Assays were performed in a final volume of 12 μL using black 384-well plates (Corning #4514) containing 50 mM HEPES (pH 7.5, BioRoYee), 0.5 mM EDTA, 1 mM dithiothreitol, 0.1 mg/mL bovine serum albumin, 50 nM Ub-Rhol10, 0.004 nM USP1/UAF1, and series diluted compounds from 10 μM to 0.5 nM (10 dilution steps). Assay-ready plates containing 40 nL of Echo-dispensed compound in DMSO were reconstituted with 2 μL of ddH2O, then 5 μL of USP1/UAF1 enzyme mixture was added and preincubated at room temperature for 2 hours. Enzymatic reaction was initiated by the addition of […] substrate mixture and assay allowed to proceed for 1 hour at room temperature before quenching with 3 μL of 150 mM citric acid. Fluorescence signal was detected via TECAN SPARK with excitation at 485 nm and emission at 535 nm. Data analysis was done using GraphPad Prism8 and IC50 values were obtained by 4-parameter logistic curve fitting.
(§1) Certain compounds were tested in the assays.

MDA-MB-436 cells = experiment: CTG Protocol (MDA-MB-436 GI50), antiproliferative activity; assay type: cell-based, human; conditions: Homo sapiens, 168 h; MDA-MB-436 cells (BRCA1 mutation), 7-day incubation, CellTiter-Glo
Method: CTG Protocol (MDA-MB-436 GI50)
Antiproliferative activity of USP1 inhibitors was determined using breast cancer cell line MDA-MB-436 that harbors BRCA1 mutation. MDA-MB-436 cells (ATCC, HTB-130) was seeded with a seeding density of 1000 cells per well and 95 μL DMEM medium (Gibco, 10566016) into 96-well cell plates (Corning, 3610), and incubated overnight at 37° C. and 5% CO2. Compounds were solubilized in DMSO (Solarbio, D8371) as 10 mM stock solution, and then series diluted (3 folds) with DMSO for 9-point dose-response testing. The resulted series dilutions were then jump-diluted 50-fold by cell culture medium to afford the 20×stock solutions (containing 2% DMSO). Treatment was initiated by adding 5 μL of 20×stock solution to the assay plate and incubated at 37° C. and 5% CO2. At the end of 7-day incubation, cell assay plates were removed from incubation and equilibrated to room temperature (20 min). Then 100 μL of CellTiter-Glo (Promega, G9243) reagent, prepared per manufacturer's protocol, was added to each well, and the resulted plates were centrifuged 1,000 rpm for 1 minute, incubated at room temperature in the dark for 20 minutes, sealed with Perkin Elmer sticky film, and the luminescence signal read by Envision (Perkin Elmer).
Data analysis • a) % Inhibition was calculated using following equation: […]
X: compound concentration; Y: % Inhibition
as §1

[2] = Solubility in FaSSIF (Fasted State Simulated Intestinal Fluid); assay type: physicochemical; conditions: kinetic from dmso stock, FaSSIF pH 6.5, 25° C.
Method: Solubility in FaSSIF (Fasted State Simulated Intestinal Fluid)
Certain Compounds of the Disclosure were assessed for the apparent solubility in FaSSIF.
0.420 g of NaOH, 3.438 g of NaH2PO4 and 6.186 g of NaCl were dissolved into about 900 mL ultrapure water. The solution was adjusted to the pH of 6.5 with 1N NaOH or 1N HCl. The solution was then diluted with ultrapure water to 1000 mL at room temperature. The resulting solution is used as buffer solution.
2.240 g of FaSSIF Powder was added to about 500 mL of above-mentioned buffer solution. The solution was stirred until powder was completely dissolved. Then the solution was diluted with buffer A to 1000 mL at room temperature. This solution is FaSSIF to be used in the following experiment.
15 μL of stock solution (10 mM) of each sample was placed into their proper 96-well rack. 485 μL of FaSSIF was added into each vial of the cap-less solubility sample plate. One stir stick was added to each vial and the vial was sealed using a molded PTFE/Silicone plug. The solubility sample plate was transferred to the Eppendorf Thermomixer Comfort plate shaker and shaked at 25° C. at 1100 RPM for 2 hours. After completion of the 2 hours, the stir sticks using a big magnet were removed. The samples from the solubility sample plate were transferred into the filter plate. Using the vacuum manifold, all the samples are filtered. Aliquot of 5 μL was taken from filtrate followed by addition of 5 μL DMSO and 490 μL of a mixture of H2O and acetonitrile containing internal standard (1:1).
3 μM Standards solution (STD) was prepared from the 10 mM DMSO STD plate.as following: transferring 6 μL into the remaining empty plate, adding 194 μL of DMSO to that plate to have a STD concentration of 300 μM. From the 300 μM DMSO STD plate, 5 μL solution was transferred into the remaining empty plate. Addition of 5 μL PBS and 490 μL of a mixture of H2O and acetonitrile containing internal standard (1:1) to that plate furnished a final STD concentration of 3 μM STD solution.
The samples are analyzed and quantified against the standard of known concentration using LC/MS/MS, calculating the solubility of the test compound as following (DF means the dilution factor):
[Sample solubility in FsSSIF (04)]=Area Ratio sample×DF sample×[STD]/Area Ratio STD

[3] = Liver microsomal stability (HLM); assay type: in vitro ADME; conditions: human, liver microsomes, human liver microsomes 0.5 mg/mL, 1 μM compound, NADPH
Method: Liver Microsomal Stability
Certain Compounds of the Disclosure were assessed for ADME metabolic stability in human liver microsomes (HLM).
Samples were prepared by adding 222.5 μL of a master solution (100 mM phosphate buffer and 0.5 mg/mL liver microsomes (HLM)) and 25 μL of a 10 mM NADPH solution to incubation plates, which were then warmed for 10 min. Each compound was separately dissolved in DMSO to prepare 10 mM stock solutions, which were then diluted to 100 μM with acetonitrile. A reaction was started by adding 2.5 μL of the […] solution of each compound to separate incubation plates such that the final concentration of for each compound in each plate was 1 μM. Aliquots of 30 μL were taken from the reaction solution at 0.5, 5, 15, 30 and 60 minutes. The reaction was stopped by the addition of 5 volumes of cold acetonitrile with IS (100 nM alprazolam, 200 nM caffeine and 100 nM tolbutamide). Aliquot of 100 μL of the supernatant was diluted by 100 μL ultra-pure water, and the mixture was used for LC/MS/MS analysis. Peak areas were determined from extracted ion chromatograms. […]. The percentage of remaining parent was calculated from peak area of test compound or PC. The slope value, k, is determined by linear regression of the natural logarithm of percent parent remaining vs. incubation time curve. All calculations are carried out using Microsoft Excel.
The in vitro half-life (in vitro t1/2) is determined from the slope value:
Conversion of the in vitro t1/2 (in min) into the in vitro intrinsic clearance (in vitro CLint, (HLM Clint (μL/min/mg proteins))) is done using the following equation: […]
A: HLM Clint <10 μL/min/mg; B: 10 μL/min/mg≤HLM Clint <50 μL/min/mg; C: HLM Clint ≥50 μL/min/mg.

T1 sequence (O94782 whole entry): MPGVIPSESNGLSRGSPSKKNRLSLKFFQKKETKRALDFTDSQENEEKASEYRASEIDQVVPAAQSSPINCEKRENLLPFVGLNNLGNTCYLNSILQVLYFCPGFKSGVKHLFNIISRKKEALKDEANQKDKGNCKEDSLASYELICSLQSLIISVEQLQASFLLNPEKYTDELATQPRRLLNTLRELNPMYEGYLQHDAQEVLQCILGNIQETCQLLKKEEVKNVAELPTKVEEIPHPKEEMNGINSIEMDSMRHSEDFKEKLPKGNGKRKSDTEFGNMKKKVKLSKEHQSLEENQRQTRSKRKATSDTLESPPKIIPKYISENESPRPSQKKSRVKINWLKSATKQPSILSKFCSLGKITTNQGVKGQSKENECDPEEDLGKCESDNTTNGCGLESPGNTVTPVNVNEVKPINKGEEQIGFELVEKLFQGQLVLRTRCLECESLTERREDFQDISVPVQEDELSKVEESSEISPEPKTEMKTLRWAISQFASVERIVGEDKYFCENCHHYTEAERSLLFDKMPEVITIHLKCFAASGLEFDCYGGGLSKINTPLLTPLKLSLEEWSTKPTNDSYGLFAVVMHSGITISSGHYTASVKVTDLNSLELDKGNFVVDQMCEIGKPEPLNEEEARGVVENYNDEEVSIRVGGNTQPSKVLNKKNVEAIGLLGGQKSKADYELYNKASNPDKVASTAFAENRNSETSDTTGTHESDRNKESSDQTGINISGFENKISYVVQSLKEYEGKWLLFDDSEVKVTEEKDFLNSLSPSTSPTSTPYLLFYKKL
T1 sequence (Q8TAF3 whole entry partner): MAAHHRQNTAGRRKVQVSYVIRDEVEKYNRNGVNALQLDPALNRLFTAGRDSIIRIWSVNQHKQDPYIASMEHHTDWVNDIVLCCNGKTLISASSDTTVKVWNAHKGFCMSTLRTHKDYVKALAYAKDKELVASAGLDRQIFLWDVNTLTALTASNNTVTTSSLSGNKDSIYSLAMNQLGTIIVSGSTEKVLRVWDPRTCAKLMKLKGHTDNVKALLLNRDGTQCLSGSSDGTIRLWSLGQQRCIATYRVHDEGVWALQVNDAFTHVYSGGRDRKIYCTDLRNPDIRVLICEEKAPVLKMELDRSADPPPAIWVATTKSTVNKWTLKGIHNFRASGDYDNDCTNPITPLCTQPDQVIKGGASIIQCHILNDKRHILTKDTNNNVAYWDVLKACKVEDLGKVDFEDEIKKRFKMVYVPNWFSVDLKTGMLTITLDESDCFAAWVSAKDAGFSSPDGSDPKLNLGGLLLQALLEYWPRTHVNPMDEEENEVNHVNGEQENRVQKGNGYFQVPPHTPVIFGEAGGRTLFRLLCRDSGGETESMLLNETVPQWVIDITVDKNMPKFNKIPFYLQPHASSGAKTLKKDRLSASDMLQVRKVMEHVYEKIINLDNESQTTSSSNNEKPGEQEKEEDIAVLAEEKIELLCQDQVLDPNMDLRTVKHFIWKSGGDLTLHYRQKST

| Structure (SMILES) | IC50 [1] [nM] | GI50 (MDA-MB-436 cells) [nM] | solubility at 2 h [2] [µM] | microsomal CLint at 1 μM [3] [µL/min/mg] |
| --- | --- | --- | --- | --- |
| CCn1cc(C(F)(F)F)nc1-c1ccc(Cn2c(=O)c(C(=O)N(C)C)cc3cnc(-c4c(OC)ncnc4C4CC4)nc32)cc1 [Compound I-39, 2-(4-cyclopropyl-6-methoxypyrimidin-5-yl)-8-({4-[1-ethyl-4-(trifluoromethyl)imidazo]-2-yl]phenylmethyl)-N,N-dimethyl-7-oxopyrido[2,3-d]pyrimidine-6-carb oxamide] | 10 to 100 | 10 to 100 |  |  |
| COc1ncnc(C2CC2)c1-c1ncc2cc(Br)c(=O)n(Cc3ccc(-c4nc(C(F)(F)F)cn4C)cc3)c2n1 [Compound I-40] | 10 to 100 | 10 to 100 |  |  |
| COc1cc(Cn2c(=O)cnc3cnc(-c4c(OC)ncnc4C4CC4)nc32)cc(F)c1-c1nc(C(F)(F)F)cn1C(C)C [Compound I-107] |  |  | ≥ 100 | < 10 |
| COc1cc(Cn2c(=O)ccc3cnc(-c4c(OC)ncnc4C4CC4)c(F)c32)ccc1-c1nc(C(F)(F)F)cn1C1CC1 [Compound I-126] |  |  | 10 to 100 (≈ 6.07 to 60.7 µg/mL) | 10 to 50 |
| COc1ncnc(C2CC2)c1-c1ncc2cc(-c3cnn(C)c3)c(=O)n(Cc3ccc(-c4nc(C(F)(F)F)cn4C)cc3)c2n1 [Compound I-64] |  |  | < 10 | < 10 |
| COc1ncnc(C2CC2)c1-c1ncc2cc(-c3ncccn3)c(=O)n(Cc3ccc(-c4nc(C(F)(F)F)cn4C4CC4)cc3)c2n1 [Compound I-145] |  |  | ≥ 100 | < 10 |
| COCCN1CCC(c2cc3cnc(-c4c(OC)ncnc4C4CC4)nc3n(Cc3ccc(-c4nc(C(F)(F)F)cn4C4CC4)cc3)c2=O)CC1 [Compound I-120] |  |  | ≥ 100 | < 10 |
| COc1ncnc(C2CC2)c1-c1ncc2nc(N3CCN(C)CC3)c(=O)n(Cc3ccc(-c4nc(C(F)(F)F)cn4C4CC4)cc3)c2n1 [Compound I-97] |  |  | ≥ 100 | 10 to 50 |
| O=c1ccc2cnc(-c3c(OC(F)F)ncnc3C3CC3)nc2n1Cc1ccc(-c2nc(C(F)(F)F)cn2C2CC2)cc1 [Compound I-103] |  |  | < 10 | < 10 |
| COc1ncnc(C2CC2)c1-c1ncc2c(C)c(-c3cnn(C)c3)c(=O)n(Cc3ccc(-c4nc(C(F)(F)F)cn4C4CC4)cc3)c2n1 [Compound I-128] |  |  | 10 to 100 (≈ 6.54 to 65.4 µg/mL) | < 10 |
